Among the data in patent US20240059703A1 (AMGEN INC., priority 2021, published 2024) are IC50 values, retold here.

Assay [1] relates to A549 (human lung carcinoma) cells. The assay can be described thus: Cell Viability Assay (CellTiter-Glo), A549. Format: cell-based. The conditions noted are these: Homo sapiens, A549, 72 h. A digest of the protocol: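 Seeding at 1.67E+04 cells/mL is followed by overnight attachment at 37° C., 5% CO2. Serially diluted compound is added for 72 h. Viability is read by CellTiter-Glo luminescence, scaled to DMSO and fitted (4-parameter logistic) to give IC50.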

The target of another assay is KRAS G12C (Homo sapiens (Human), UniProt P01116, C118A/G12C). Briefly: 2 h coupled exchange assay. The conditions noted are these: Avg 2 h Coupled exchange IC50, 2 h compound pre-incubation. Format: biochemical. As to the method:
The term “2 h coupled exchange assay” or “20 h coupled exchange assay” as used herein refers to the assay described in the Section entitled “BIOLOGICAL EVALUATION.”

In assay [2] the test system is MIA PaCa-2 (human pancreatic carcinoma) cells. The assay can be described thus: Cell Viability Assay (CellTiter-Glo), MIA PaCa-2. Format: cell-based. To be noted: Homo sapiens, MIA PaCa-2, 72 h. As for the experimental part:
Serially-diluted compound or DMSO was added to the cells, and plates were incubated at 37° C., 5% CO2 for 72 h. Cell viability was measured using a CellTiter-Glo® Luminescent Cell Viability Assay kit (Promega) according to the manufacturer's protocol. The luminescence signal of treated samples was normalized to DMSO control, and data were analyzed using a 4-parameter logistic model to calculate IC50 values.

Structures are written as SMILES.

KRAS G12C, sequence (P01116 other isoform, or with tags, fused parts or gaps G12C/C118A): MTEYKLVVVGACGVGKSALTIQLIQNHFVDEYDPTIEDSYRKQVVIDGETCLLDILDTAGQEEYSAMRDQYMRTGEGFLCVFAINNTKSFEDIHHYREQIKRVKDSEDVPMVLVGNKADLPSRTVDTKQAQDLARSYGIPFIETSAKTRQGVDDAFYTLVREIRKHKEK

For `C=CC(=O)N1CC2(CCN(c3nc4c(c(-c5ccc(F)cc5Cl)c3C#N)CO[C@@H](c3scnc3C)C4)C2)C1` [Example 23-27, (7R)-4-(2-chloro-4-fluorophenyl)-7-(4-methyl-1,3-thiazol-5-yl)-2-(2-(2-propenoyl)-2,6-diazaspiro[3.4]octan-6-yl)-7,8-dihydro-5H-pyrano[4,3-b]pyridine-3-carbonitrile], the IC50 is above 5000 nM in assay [1], 97 nM against KRAS G12C and 776 nM in assay [2].

On to `C=CC(=O)N1CC2(CCN(c3nc4c(c(-c5ccc(F)cc5Cl)c3C#N)CO[C@H](c3scnc3C)C4)C2)C1` [Example 23-28, (7S)-4-(2-chloro-4-fluorophenyl)-7-(4-methyl-1,3-thiazol-5-yl)-2-(2-(2-propenoyl)-2,6-diazaspiro[3.4]octan-6-yl)-7,8-dihydro-5H-pyrano[4,3-b]pyridine-3-carbonitrile], for which the IC50 turned out to be 5680 nM in assay [1], 415 nM against KRAS G12C and 1400 nM in assay [2].

On to `C=CC(=O)N1CC2(CCN(c3nc4c(c(-c5c(O)cccc5F)c3C#N)CCC(c3scnc3C)=C4)C2)C1` [Example 23-29, 4-(2-fluoro-6-hydroxyphenyl)-7-(4-methyl-1,3-thiazol-5-yl)-2-(2-(2-propenoyl)-2,6-diazaspiro[3.4]octan-6-yl)-5,6-dihydro-3-quinolinecarbonitrile], for which the IC50 is above 5000 nM in assay [1], 48 nM against KRAS G12C and 1320 nM in assay [2].

Regarding `C=CC(=O)N1CC2(CCN(c3nc4c(c(-c5ccc(F)cc5)c3C#N)CCC(c3scnc3C)=C4)C2)C1` [Example 23-30, 4-(4-fluorophenyl)-7-(4-methyl-1,3-thiazol-5-yl)-2-(2-(2-propenoyl)-2,6-diazaspiro[3.4]octan-6-yl)-5,6-dihydro-3-quinolinecarbonitrile], the IC50 came out at 8390 nM in assay [1], 132 nM against KRAS G12C and 1950 nM in assay [2].

For `C=CC(=O)N1CC2(CCN(c3nc4c(c(-c5cc(OC)ccc5Cl)c3C#N)CCC(c3scnc3C)=C4)C2)C1` [Example 23-31, 4-(2-chloro-5-methoxyphenyl)-7-(4-methyl-1,3-thiazol-5-yl)-2-(2-(2-propenoyl)-2,6-diazaspiro[3.4]octan-6-yl)-5,6-dihydro-3-quinolinecarbonitrile], the IC50 in assay [1] amounted to 6720 nM; against KRAS G12C, 168 nM; in assay [2], 2240 nM.

As for `C=CC(=O)N1CC2(CCN(c3nc4c(c(-c5c(O)cccc5Cl)c3C#N)CCC(c3scnc3C)=C4)C2)C1` [Example 23-34, 4-(2-chloro-6-hydroxyphenyl)-7-(4-methyl-1,3-thiazol-5-yl)-2-(2-(2-propenoyl)-2,6-diazaspiro[3.4]octan-6-yl)-5,6-dihydro-3-quinolinecarbonitrile], the IC50 in assay [1] is above 5000 nM; at KRAS G12C, 97 nM; in assay [2], 1090 nM.

As to `C=CC(=O)N1CC2(CCN(c3nc4c(c(-c5c(O)cccc5Cl)c3C#N)COC(c3scnc3C)C4)C2)C1` [Example 23-35, (7R)-4-(2-chloro-6-hydroxyphenyl)-7-(4-methyl-1,3-thiazol-5-yl)-2-(2-(2-propenoyl)-2,6-diazaspiro[3.4]octan-6-yl)-7,8-dihydro-5H-pyrano[4,3-b]pyridine-3-carbonitrile (7S)-4-(2-chloro-6-hydroxyphenyl)-7-(4-methyl-1,3-thiazol-5-yl)-2-(2-(2-propenoyl)-2,6-diazaspiro[3.4]octan-6-yl)-7,8-dihydro-5H-pyrano[4,3-b]pyridine-3-carbonitrile], the IC50 in assay [1] came to 21000 nM; at KRAS G12C it was 840 nM; in assay [2] it was 2400 nM.

`C=CC(=O)N1CC2(CCN(c3nc4c(c(-c5c(F)cccc5Cl)c3C#N)COC(c3scnc3C)C4)C2)C1` [Example 23-36, (7R)-4-(2-chloro-6-fluorophenyl)-7-(4-methyl-1,3-thiazol-5-yl)-2-(2-(2-propenoyl)-2,6-diazaspiro[3.4]octan-6-yl)-7,8-dihydro-5H-pyrano[4,3-b]pyridine-3-carbonitrile (7S)-4-(2-chloro-6-fluorophenyl)-7-(4-methyl-1,3-thiazol-5-yl)-2-(2-(2-propenoyl)-2,6-diazaspiro[3.4]octan-6-yl)-7,8-dihydro-5H-pyrano[4,3-b]pyridine-3-carbonitrile]: the results for the IC50 (in assay [1]; at KRAS G12C; in assay [2]) were 9320 nM, 272 nM and 1530 nM, respectively.

As to `C=CC(=O)N1CC2(CCN(c3nc4c(c(-c5ccccc5F)c3C#N)CCC3(c5scnc5C)C4C3(F)F)C2)C1` (stereo not drawn) [Example 23-37], the IC50 stood at 14600 nM in assay [1], 179 nM against KRAS G12C and 3120 nM in assay [2].

As for `C=CC(=O)N1CC2(CCN(c3nc4c(c(-c5cc(OC)ccc5F)c3C#N)CCC(c3scnc3C)=C4)C2)C1` [Example 23-38, 4-(2-fluoro-5-methoxyphenyl)-7-(4-methyl-1,3-thiazol-5-yl)-2-(2-(2-propenoyl)-2,6-diazaspiro[3.4]octan-6-yl)-5,6-dihydro-3-quinolinecarbonitrile], the IC50 is 8010 nM in assay [1], 135 nM against KRAS G12C and 1540 nM in assay [2].

As for `C=CC(=O)N1CC2(CCN(c3nc4c(c(-c5ccccc5OC)c3C#N)CCC(c3scnc3C)=C4)C2)C1` [Example 23-39, 4-(2-methoxyphenyl)-7-(4-methyl-1,3-thiazol-5-yl)-2-(2-(2-propenoyl)-2,6-diazaspiro[3.4]octan-6-yl)-5,6-dihydro-3-quinolinecarbonitrile], the values for the IC50 (in assay [1]; at KRAS G12C; in assay [2]) were 7690 nM, 394 nM and 2370 nM, respectively.

`C=CC(=O)N1CC2(CCN(c3nc4c(c(-c5ccccc5O)c3C#N)CCC(c3scnc3C)=C4)C2)C1` [Example 23-40, 4-(2-hydroxyphenyl)-7-(4-methyl-1,3-thiazol-5-yl)-2-(2-(2-propenoyl)-2,6-diazaspiro[3.4]octan-6-yl)-5,6-dihydro-3-quinolinecarbonitrile]: the results for the IC50 (in assay [1]; on KRAS G12C; in assay [2]) were 7260 nM, 136 nM and 2280 nM, respectively.

As for `C=CC(=O)N1CC2(CCN(c3nc4c(c(-c5cccc(O)c5F)c3C#N)CCC(c3scnc3C)=C4)C2)C1` [Example 23-43, 4-(2-fluoro-3-hydroxyphenyl)-7-(4-methyl-1,3-thiazol-5-yl)-2-(2-(2-propenoyl)-2,6-diazaspiro[3.4]octan-6-yl)-5,6-dihydro-3-quinolinecarbonitrile], the IC50 is 8380 nM in assay [1], 299 nM against KRAS G12C and 4560 nM in assay [2].

On to `C=CC(=O)N1CC2(CCN(c3nc4c(c(-c5cccc(OC)c5F)c3C#N)CCC(c3scnc3C)=C4)C2)C1` [Example 23-44, 4-(2-fluoro-3-methoxyphenyl)-7-(4-methyl-1,3-thiazol-5-yl)-2-(2-(2-propenoyl)-2,6-diazaspiro[3.4]octan-6-yl)-5,6-dihydro-3-quinolinecarbonitrile], for which the figures for the IC50 (in assay [1]; against KRAS G12C; in assay [2]) were 5860 nM, 687 nM and 3100 nM, respectively.

Consider `C=CC(=O)N1CC2(CCN(c3nc4c(c(-c5cc(O)ccc5Cl)c3C#N)CCC(c3scnc3C)=C4)C2)C1` [Example 23-45, 4-(2-chloro-5-hydroxyphenyl)-7-(4-methyl-1,3-thiazol-5-yl)-2-(2-(2-propenoyl)-2,6-diazaspiro[3.4]octan-6-yl)-5,6-dihydro-3-quinolinecarbonitrile], for which the IC50 was above 5000 nM in assay [1], 33 nM on KRAS G12C and 1070 nM in assay [2].

In the case of `C=CC(=O)N1CC2(CCN(c3nc4c(c(-c5cccc(F)c5F)c3C#N)CCC(c3scnc3C)=C4)C2)C1` [Example 23-46, 4-(2,3-difluorophenyl)-7-(4-methyl-1,3-thiazol-5-yl)-2-(2-(2-propenoyl)-2,6-diazaspiro[3.4]octan-6-yl)-5,6-dihydro-3-quinolinecarbonitrile], the IC50 in assay [1] was 5370 nM; at KRAS G12C it was 114 nM; in assay [2], 1500 nM.

For the compound `C=CC(=O)N1CC2(CCN(c3nc4c(c(-c5cc(O)ccc5F)c3C#N)CCC(c3scnc3C)=C4)C2)C1` [Example 23-47, 4-(2-fluoro-5-hydroxyphenyl)-7-(4-methyl-1,3-thiazol-5-yl)-2-(2-(2-propenoyl)-2,6-diazaspiro[3.4]octan-6-yl)-5,6-dihydro-3-quinolinecarbonitrile], the results for the IC50 (in assay [1]; at KRAS G12C; in assay [2]) were above 5000 nM, 44 nM and above 5000 nM, respectively.

As to `C=CC(=O)N1CC2(CCN(c3nc4c(c(-c5c(C)cccc5F)c3C#N)CCC(c3scnc3C)=C4)C2)C1` [Example 23-48, 4-(2-fluoro-6-methylphenyl)-7-(4-methyl-1,3-thiazol-5-yl)-2-(2-(2-propenoyl)-2,6-diazaspiro[3.4]octan-6-yl)-5,6-dihydro-3-quinolinecarbonitrile], the concentration for half-maximal inhibition (IC50) in assay [1] was found to be 3430 nM; against KRAS G12C, 112 nM; in assay [2], 761 nM.

Regarding `C=CC(=O)N1CC2(CCN(c3nc4c(c(-c5ncccc5F)c3C#N)CCC(c3scnc3C)=C4)C2)C1` [Example 23-49, 4-(3-fluoro-2-pyridinyl)-7-(4-methyl-1,3-thiazol-5-yl)-2-(2-(2-propenoyl)-2,6-diazaspiro[3.4]octan-6-yl)-5,6-dihydro-3-quinolinecarbonitrile], the IC50 in assay [1] is above 5000 nM; against KRAS G12C, 197 nM; in assay [2], 670 nM.
